This is an account of results in US9365612B2, “Caspase inhibitors” (United States of America as represented by the Secretary, …, priority 2010, dated 2016).

pIC50, pKi: −log10 of the molar value.

Series [1] concerns the target T1, caspase 1 (Homo sapiens, UniProt P29466).
T1 sequence (P29466 120-297 limits assumed): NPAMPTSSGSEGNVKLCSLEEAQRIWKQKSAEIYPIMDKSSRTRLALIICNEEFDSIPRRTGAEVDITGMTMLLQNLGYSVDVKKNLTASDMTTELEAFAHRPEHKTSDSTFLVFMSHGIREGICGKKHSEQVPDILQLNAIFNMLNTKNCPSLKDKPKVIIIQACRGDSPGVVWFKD
T1 sequence (P29466 317-404 limits assumed): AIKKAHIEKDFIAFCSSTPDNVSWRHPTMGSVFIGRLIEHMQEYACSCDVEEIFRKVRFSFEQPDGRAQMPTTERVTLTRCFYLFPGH
Put plainly: caspase 1 inhibition assay with caged fluorescent peptide substrate (Ac-LEHD-AMC). The format is biochemical. The conditions noted are these: 2 nM enzyme, 20 minutes at room temperature, fluorescence detection, read-out: IC50 versus caspase 1. How it is done: Each agent's inhibitory capacity versus caspase 1 was evaluated. A well established protocol was utilized whereby caspase 1 activity is measured utilizing 2 nM enzyme in the presence and absence of compound and a caged fluorescent peptide substrate (Ac-LEHD-AMC). Wannamaker et al, Journal of Pharmacology and Experimental Therapeutics, 2007, 321, 509-516. The compounds were examined across a titration series (0.325 nM→57.5 μM) and data was recorded via fluorescence detection following an incubation period of 20 minutes at room temperature.

Series [2] concerns the target T2, caspase 4 (Homo sapiens, UniProt P49662).
T2 construct: purchased Reaction Biology Corporation
T2 sequence (P49662 81-270 limits assumed): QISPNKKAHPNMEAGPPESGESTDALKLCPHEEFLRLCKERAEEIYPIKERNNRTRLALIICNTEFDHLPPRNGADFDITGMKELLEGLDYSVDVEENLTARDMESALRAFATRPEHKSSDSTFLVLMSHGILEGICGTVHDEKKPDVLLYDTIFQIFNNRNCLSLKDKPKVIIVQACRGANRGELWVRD
T2 sequence (P49662 290-377 limits assumed): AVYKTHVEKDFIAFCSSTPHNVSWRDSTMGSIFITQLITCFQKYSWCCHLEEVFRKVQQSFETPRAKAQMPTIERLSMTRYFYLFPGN
Put plainly: commercial panel of caspases (Reaction Biology Corporation), caspase 4. The format is biochemical. The conditions noted are these: read-out: IC50 versus caspase 4. An excerpt: (§1) Having established that the compounds (3), (4) and (16) are potent inhibitors of caspase 1, the selectivity of these agents was examined. […] Wannamaker, W.; Davies, R.; Namchuk, M.; Pollard, J.; Ford, P.; Ku, G.; Decker, C.; Charifson, P.; Weber, P.; Germann, U. A.; Kuida, K.; Randle, J. C. R. J. Pharmacol. Exp. Ther. 2007, 321, 509-516. […] VRT-043198 (2b), NCGC00185682 (3), NCGC00183434 (4) and NCGC00183681 (16) were entered within a commercial panel of caspases offered by Reaction Biology Corporation. […] A particularly interesting aspect of these molecules was the high selectivity for caspase 1. […] All other activities were about the 1 μM threshold.

The nature of series [3]: microsomal stability (both human and rat). The conditions noted are these: liver microsomes, species not given. The format is in vitro ADME. How it is done: (§2) Given the aqueous stability of these new agents, selected ADME properties for chosen compounds were also examined. VX-765 (1), VRT-043198 (2b), NCGC00185682 (3), NCGC00183434 (4) and NCGC00183681 (16) were evaluated for a profile of bi-directional Caco-2 permeability, plasma protein binding (both human and rat) and microsomal stability (both human and rat) studies (FIG. 9, Table 2). […] The clearance rates (Clint) and t ½ for VRT-043198 (2b), NCGC00185682 (3), NCGC00183434 (4) and NCGC00183681 (16) were all moderate.
A general note: Microsomes from liver hold many membrane-bound enzymes, among them those of drug oxidation.

Series [4] concerns the target T3, caspase 8 (Homo sapiens, UniProt Q14790). The conditions noted are these: reported by Randle and coworkers (Wannamaker et al. 2007); read-out: Ki versus caspase 8; cited from earlier work.
Series [5] has as its target T4, caspase 9 (Homo sapiens, UniProt P55211).
T4 construct: purchased Reaction Biology Corporation
T4 sequence (P55211 1-315 limits assumed): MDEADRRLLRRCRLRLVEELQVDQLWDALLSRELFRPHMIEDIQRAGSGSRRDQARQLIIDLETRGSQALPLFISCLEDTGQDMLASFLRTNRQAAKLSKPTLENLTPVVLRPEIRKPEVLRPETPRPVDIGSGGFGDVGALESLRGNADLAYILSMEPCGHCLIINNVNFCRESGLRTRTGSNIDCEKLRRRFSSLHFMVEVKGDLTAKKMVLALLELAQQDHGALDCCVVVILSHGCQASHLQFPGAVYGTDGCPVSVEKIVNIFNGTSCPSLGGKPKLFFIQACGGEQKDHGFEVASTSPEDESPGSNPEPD
T4 sequence (P55211 331-416 limits assumed): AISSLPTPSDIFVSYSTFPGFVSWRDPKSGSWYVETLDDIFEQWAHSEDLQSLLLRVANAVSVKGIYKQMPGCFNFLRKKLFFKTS
The conditions noted are these: reported by Randle and coworkers (Wannamaker et al. 2007); read-out: Ki versus caspase 9; cited from earlier work.

Series [6] deals with T1, caspase 1. Put plainly: commercial panel of caspases (Reaction Biology Corporation), caspase 1. The format is biochemical. The conditions noted are these: read-out: IC50 versus caspase 1.
From the text: as §1

Series [7] has as its target T1, caspase 1. The conditions noted are these: reported by Randle and coworkers (Wannamaker et al. 2007); read-out: Ki versus caspase 1; cited from earlier work.
Series [8] can be described thus: plasma protein binding, human. The format is in vitro ADME. The conditions noted are these: relative to VX-765 (1) and NCGC00185682 (3). How it is done: as §2
Series [9] in a line: plasma protein binding, rat. The format is in vitro ADME. The conditions noted are these: relative to VX-765 (1) and NCGC00185682 (3). How it is done:
as §2

Series [10] concerns the target T4, caspase 9. Briefly: commercial panel of caspases (Reaction Biology Corporation), caspase 9. The format is biochemical. The conditions noted are these: read-out: IC50 versus caspase 9.
From the text: as §1

For a further series, the target named is T5, caspase 6 (Homo sapiens, UniProt P55212).
T5 sequence (P55212 24-179 limits assumed): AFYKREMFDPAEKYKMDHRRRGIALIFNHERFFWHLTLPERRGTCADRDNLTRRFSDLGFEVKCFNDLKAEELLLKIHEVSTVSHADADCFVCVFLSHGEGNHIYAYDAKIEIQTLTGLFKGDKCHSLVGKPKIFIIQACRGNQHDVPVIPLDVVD
T5 sequence (P55212 194-293 limits assumed): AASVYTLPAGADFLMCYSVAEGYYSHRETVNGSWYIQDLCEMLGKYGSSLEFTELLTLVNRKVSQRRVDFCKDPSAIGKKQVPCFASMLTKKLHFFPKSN
Put plainly: commercial panel of caspases (Reaction Biology Corporation), caspase 6. The format is biochemical. The conditions noted are these: read-out: IC50 versus caspase 6.
From the text: as §1

Series [11] concerns the target T3, caspase 8. Briefly: commercial panel of caspases (Reaction Biology Corporation), caspase 8. The format is biochemical. The conditions noted are these: read-out: IC50 versus caspase 8.
From the text: as §1

The target of series [12] is T2, caspase 4. The conditions noted are these: reported by Randle and coworkers (Wannamaker et al. 2007); read-out: Ki versus caspase 4; cited from earlier work.

By pIC50 is commonly meant the IC50 on a negative log10 scale, so that one unit is a factor of ten. The pKi is −log10 of the Ki, conventionally taken in molar units.

T3 sequence (Q14790 217-374 limits assumed): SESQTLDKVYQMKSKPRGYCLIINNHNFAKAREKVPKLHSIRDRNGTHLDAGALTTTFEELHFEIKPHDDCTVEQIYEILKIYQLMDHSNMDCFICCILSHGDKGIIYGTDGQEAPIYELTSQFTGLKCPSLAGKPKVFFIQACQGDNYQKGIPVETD
T3 sequence (Q14790 385-479 limits assumed): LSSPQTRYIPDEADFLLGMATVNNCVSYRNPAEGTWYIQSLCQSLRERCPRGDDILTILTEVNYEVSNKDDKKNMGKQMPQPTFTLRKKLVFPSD

As to `CC(C)(C)[C@H](NC(=O)c1ccc(N)c(Cl)c1)C(=O)N1CCC[C@H]1C(=O)N[C@H](C=O)CC(=O)O` [VRT-043198 (2b), reference compound], the negative-log IC50 (pIC50) is 7.94 on caspase 1 [1]; 7.84 on caspase 4 [2]; 9.69 at caspase 1 [6]; 8.29 on caspase 9 [10]; below 5.00 on caspase 6; 8.48 at caspase 8 [11]. Also, the “clearance rates (Clint)” value in series [3] was “moderate”. Also, the “t ½” value in series [3] is recorded as “moderate”. Besides, the negative-log Ki (pKi) is 7.00 on caspase 8 [4], 5.99 at caspase 9 [5], above 9.00 on caspase 1 [7] and above 9.00 on caspase 4 [12]. The “free fraction in protein binding assay” value in series [8] and in series [9] was “significantly higher” throughout.
